# Patent US20230202995A1, “HIGH EFFICIENT SEX PHEROMONE LURES FOR ECTROPIS OBLIQUE AND ECTROPIS GRISESCENS” (CHANGZHOU UNIVERSITY, priority 2021, published 2023)
# Test system: E. oblique
# Assay: Field trapping test with sex pheromone lures in traps, tea plantation
# Assay type: in vivo, Ectropis oblique
# Settings: lures with (3Z,6Z,9Z)-octadecatriene
# Procedure: Embodiment 9: Field trapping tests were carried out at a tea plantation of Jintan Xinpin Tea Industry Co., Ltd., Changzhou City, Jiangsu Province. Sex pheromone lures used in the tests were made according to the schemes described in Embodiments 3-8, and a blank control was a lure made of n-hexane. The sex pheromone lure was used with a trap, each treatment process was repeated 3 times, and the number of trapped male pests in one month was counted.
# Embodiment 50: Field trapping tests were carried out at the tea plantation of Jintan Xinpin Tea Industry Co., Ltd., Changzhou City, Jiangsu Province. Sex pheromone lures used in the test were made according to the schemes described in Embodiments 10-49, and a blank control was the lures made of n-hexane. The sex pheromone lures were used with a trap, each treatment process was repeated for 3 times, and the number of trapped insects in one month was counted.
# Embodiment 53: Field trapping tests were carried out at the tea plantation of Jintan Xinpin Tea Industry Co., Ltd., Changzhou City, Jiangsu Province. Sex pheromone lures used in the test were made according to the schemes described in Embodiments 51-52, and a blank control was the lures made in Embodiment 12. The sex pheromone lure was used with a trap, each treatment process was repeated 3 times, and the number of trapped insects in one month was counted.
# Embodiment 54: Field trapping tests were carried out at the tea plantation of Jintan Xinpin Tea Industry Co., Ltd., Changzhou City, Jiangsu Province. Sex pheromone lures used in the test were made according to the schemes described in Embodiment 12. The sex pheromone lure was used with a trap, each treatment process was repeated for 3 times, and the number of trapped insects in one month was counted.
row,Structure (SMILES),Trapping effect on E. oblique (in words)
1,"CC/C=C\C/C=C\C[C@H]1O[C@H]1CCCCCCCC [(3Z,6Z,9R,10S)-9,10-epoxy-octadecadiene]",no trapping effect at all
2,"CC/C=C\C[C@H]1O[C@H]1C/C=C\CCCCCCCC [(3Z,9Z,6R,7S)-6,7-epoxy-octadecadiene]",certain trapping capacity
3,"CCCCCCCC/C=C\C/C=C\C[C@H]1O[C@H]1CC [(6Z,9Z,3S,4R)-3,4-epoxy-octadecadiene]",no trapping effect at all
4,"CCCCCCCC/C=C\C/C=C\C[C@@H]1O[C@@H]1CC [(6Z,9Z,3R,4S)-3,4-epoxy-octadecadiene]",no trapping effect at all
5,"CC/C=C\C/C=C\C[C@@H]1O[C@@H]1CCCCCCCC [(3Z,6Z,9S,10R)-9,10-epoxy-octadecadiene]",no trapping effect at all
6,"CC/C=C\C[C@@H]1O[C@@H]1C/C=C\CCCCCCCC [(3Z,9Z,6S,7R)-6,7-epoxy-octadecadiene]",certain trapping capacity
